Results from US12065404B2, “C4-carboxylic acid-substituted tryptamine derivatives and methods of using” (priority 2022, dated 2024).
Several values for one entry are separate records, joined by “and”; a condition that tells them apart may be missing. Identical values can stand only once.

Experiment: Mouse pharmacokinetic (PK) study, parent compound and psilocin metabolite in plasma
Format: in vivo, C57Bl/6 mice
Details: for bioavailability: male, C57Bl/6, mouse, plasma, po, no footnote on basis (Table 36B)
From the text: Briefly, the procedure was as follows. […] 19, 2022.

[1] = administered compound itself in plasma, 1 mg/kg i.v., individual animals, 1 mg/kg
[2] = administered compound itself in plasma, 1 mg/kg i.v., mean ± SD
[3] = administered compound itself in plasma, 1 mg/kg oral, individual animals, 1 mg/kg
[4] = administered compound itself in plasma, 1 mg/kg oral, mean ± SD
[5] = administered compound itself in plasma, 3 mg/kg oral, individual animals, 3 mg/kg
[6] = administered compound itself in plasma, 3 mg/kg oral, mean ± SD
[7] = plasma C(XX), 3 mg/kg p.o. C(XX), mean
[8] = plasma C(XX), 10 mg/kg oral C(XX), animals M58-M60, 10 mg/kg
[9] = plasma C(XX), 10 mg/kg oral C(XX), mean (n = 2)
[10] = plasma C(XX), 10 mg/kg oral C(XX), mean ± SD
[11] = plasma C(XX), 10 mg/kg oral C(XX), mean ± SD, 10 mg/kg

With `CN(C)CCc1c[nH]c2cccc(OC(=O)c3cccc4c3OCCO4)c12` [C(XX)] the C0 [1] was 204 ng/mL and 139 ng/mL, the CL [1] was 266.52 mL/min/kg and 346.28 mL/min/kg and the MRT0-inf [1] was 22 min and 25.7 min. For the same compound, the Vss [1] was 5.874 L/kg and 8.913 L/kg, the AUC0-inf/Dose [2] was 53.0 ± 8.26 kg·ng·h/mL/mg and the AUC0-tlast/Dose [2] was 52.8 ± 8.30 kg·ng·h/mL/mg. The MRT0-inf [2] was 24.7 ± 2.27 min, the Cmax [3] was 0.509 ng/mL and 0.648 ng/mL and the Cmax/Dose [3] was 0.702 kg·ng/mL/mg and 0.509 kg·ng/mL/mg and 0.648 kg·ng/mL/mg. It also gave a tmax [3] of 15 min, a Cmax [4] of 0.620 ± 0.0996 ng/mL and a Cmax/Dose [4] of 0.620 ± 0.0996 kg·ng/mL/mg. For the same compound, the AUC0-inf [5] was 1.72 ng·h/mL and 1.53 ng·h/mL, the AUC0-inf/Dose [5] was 0.433 kg·ng·h/mL/mg and 0.572 kg·ng·h/mL/mg and 0.510 kg·ng·h/mL/mg and the AUC0-tlast [5] was 1.48 ng·h/mL and 1.42 ng·h/mL. The AUC0-tlast/Dose [5] was 0.406 kg·ng·h/mL/mg and 0.494 kg·ng·h/mL/mg and 0.474 kg·ng·h/mL/mg, the “Apparent t1/2” value [5] was 40.1 min and 28.9 min and the Cmax [5] was 1.72 ng/mL and 1.93 ng/mL. For the same compound, the Cmax/Dose [5] was 0.497 kg·ng/mL/mg and 0.573 kg·ng/mL/mg and 0.643 kg·ng/mL/mg, the MRT0-inf [5] was 64.8 min and 49.4 min and the AUC0-inf [6] was 1.51 ± 0.210 ng·h/mL. For the same compound, the AUC0-inf/Dose [6] was 0.505 ± 0.0700 kg·ng·h/mL/mg, the AUC0-tlast [6] was 1.37 ± 0.137 ng·h/mL and the AUC0-tlast/Dose [6] was 0.458 ± 0.0457 kg·ng·h/mL/mg. For the same compound, the Cmax [6] was 1.71 ± 0.220 ng/mL, the Cmax/Dose [6] was 0.571 ± 0.0734 kg·ng/mL/mg and the bioavailability (3 mg/kg, 3 mg/kg oral, individual animals) was 0.816%. For the same compound, the bioavailability (3 mg/kg, 3 mg/kg oral, mean ± SD) was 0.953 ± 0.132%, the AUC0-tlast/Dose (plasma C(XX), 1 mg/kg i.v. C(XX), mean) was 52.8 kg·ng·h/mL/mg and the Cmax/Dose (plasma C(XX), 1 mg/kg p.o. C(XX), mean) was 0.620 kg·ng/mL/mg. For the same compound, the AUC0-tlast/Dose [7] was 0.458 kg·ng·h/mL/mg, the Cmax/Dose [7] was 0.571 kg·ng/mL/mg and the F [7] was 0.953%. The tmax (plasma C(XX), 10 mg/kg oral C(XX), animals M58-M60) was 15 min, the AUC0-inf [8] was 5.40 ng·h/mL and 10.7 ng·h/mL and the AUC0-tlast [8] was 5.65 ng·h/mL and 4.99 ng·h/mL and 9.16 ng·h/mL. The AUC0-tlast/Dose [8] was 0.565 kg·ng·h/mL/mg and 0.499 kg·ng·h/mL/mg and 0.916 kg·ng·h/mL/mg, the F (plasma C(XX), 10 mg/kg oral C(XX), animals M58-M60, AUC0-tlast used, 10 mg/kg) was 1.07% and 0.941% and 1.73% and the AUC0-inf [9] was 8.03 ng·h/mL. The “Apparent t1/2” value [9] was 186 min, the MRT0-inf [9] was 131 min and the AUC0-tlast [10] was 6.60 ± 2.24 ng·h/mL. For the same compound, the Cmax [10] was 7.47 ± 3.92 ng/mL, the tmax [10] was 15 ± 0 min and the AUC0-tlast/Dose [11] was 0.660 ± 0.224 kg·ng·h/mL/mg and 0.660 kg·ng·h/mL/mg. The Cmax/Dose [11] was 0.747 ± 0.392 kg·ng/mL/mg and 0.747 kg·ng/mL/mg and the F (plasma C(XX), 10 mg/kg oral C(XX), mean ± SD, AUC0-tlast used, 10 mg/kg) was 1.24 ± 0.423% and 1.24%.
